Test results: PubChem BioAssay (NCI)
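Assay format: 96-well plates, 48-hour exposure. TGI is the concentration that stops growth completely.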

Columns and labels:
Assay in all cases: NCI anticancer screen, dose series, 48 h
[1] = tested on: RPMI-8226 leukemia
[2] = tested on: ACHN renal
[3] = tested on: SK-MEL-5 melanoma
[4] = tested on: LOX IMVI melanoma
[5] = tested on: M19-MEL melanoma
[6] = tested on: UO-31 renal
[7] = tested on: DMS 273 small cell lung
[8] = tested on: OVCAR-5 ovarian
[9] = tested on: XF 498 CNS
[10] = tested on: SNB-19 CNS
[11] = tested on: CAKI-1 renal
[12] = tested on: COLO 205 colon
[13] = tested on: NCI-H226 lung
[14] = tested on: TK-10 renal
[15] = tested on: HOP-92 NSCLC
[16] = tested on: SK-OV-3 ovarian
[17] = tested on: SR leukemia
[18] = tested on: HS 578T breast
[19] = tested on: KM12 colon
[20] = tested on: NCI/ADR-RES ovarian
[21] = tested on: HL-60(TB) leukemia
[22] = tested on: HT29 colon
[23] = tested on: HCC-2998 colon
[24] = tested on: SF-539 CNS
[25] = tested on: HCT-116 colon
[26] = tested on: SN12C renal
[27] = tested on: UACC-62 melanoma
[28] = tested on: DU-145 prostate
[29] = tested on: LXFL 529 NSCLC
[30] = tested on: OVCAR-3 ovarian
[31] = tested on: DMS 114 small cell lung
[32] = tested on: OVCAR-4 ovarian
[33] = tested on: KM20L2 colon
[34] = tested on: M14 melanoma
[35] = tested on: SK-MEL-2 melanoma
[36] = tested on: HCT-15 colon
[37] = tested on: PC-3 prostate
[38] = tested on: NCI-H23 lung
[39] = tested on: UACC-257 melanoma
[40] = tested on: MALME-3M melanoma
[41] = tested on: U251 CNS
[42] = tested on: CCRF-CEM leukemia
[43] = tested on: MOLT-4 leukemia
[44] = tested on: NCI-H460 lung
[45] = tested on: HOP-62 NSCLC
[46] = tested on: RXF 393 renal
[47] = tested on: EKVX NSCLC
[48] = tested on: SK-MEL-28 melanoma
[49] = tested on: DLD-1 colon
[50] = tested on: SF-268 CNS
[51] = tested on: A549 NSCLC
[52] = tested on: IGROV1 ovarian
[53] = tested on: NCI-H522 lung
[54] = tested on: A498 renal
[55] = tested on: K-562 leukemia
[56] = tested on: 786-0 renal
[57] = tested on: OVCAR-8 ovarian
[58] = tested on: SF-295 CNS
[59] = tested on: SW-620 colon
[60] = tested on: SNB-78 CNS
[61] = tested on: SNB-75 CNS
[62] = tested on: HOP-18 NSCLC
[63] = tested on: MDA-N
[64] = tested on: BT-549 breast
[65] = tested on: MCF7 breast
[66] = tested on: T-47D breast
[67] = tested on: MDA-MB-435
[68] = tested on: MDA-MB-231 breast

CN(C)[C@H]1CC[C@H]2[C@@H]3CCC4C[C@@H](NC(=O)NC(Cc5ccccc5)c5nccs5)CC[C@]4(C)[C@H]3CC[C@]12C (stereo partly specified)
TGI [1]: 3.28 µM | TGI [2]: 2.86 µM | TGI [3]: 3.38 µM | TGI [4]: 3.46 µM | TGI [5]: 3.41 µM | TGI [6]: 3.38 µM | TGI [7]: 3.86 µM | TGI [8]: 3.2 µM | TGI [9]: 2.51 µM | TGI [10]: 3.74 µM | TGI [11]: 3.11 µM | TGI [12]: 3.05 µM | TGI [13]: 3.89 µM | TGI [14]: 3.89 µM | TGI [15]: 2.82 µM | TGI [16]: 3.09 µM | TGI [17]: 4.14 µM | TGI [18]: 5.36 µM | TGI [19]: 3.44 µM | TGI [20]: 4.83 µM | TGI [21]: 0.376 µM | TGI [22]: 1.9 µM | TGI [23]: 3.16 µM | TGI [24]: 3.37 µM | TGI [25]: 1.33 µM | TGI [26]: 3.36 µM | TGI [27]: 3.46 µM | TGI [28]: 6.67 µM | TGI [29]: 1.61 µM | TGI [30]: 3.43 µM | TGI [31]: 3.31 µM | TGI [32]: 3.18 µM | TGI [33]: 2.81 µM | TGI [34]: 3.23 µM | TGI [35]: 3.41 µM | TGI [36]: 2.03 µM | TGI [37]: 2.35 µM | TGI [38]: 3.89 µM | TGI [39]: 3.63 µM | TGI [40]: 3.37 µM

COC(=O)CS(=O)c1ccccc1 (stereo unspecified)
TGI [1]: 52.2 µM | TGI [2]: > 100 µM | TGI [3]: > 100 µM | TGI [41]: 98.6 µM | TGI [4]: 44.4 µM | TGI [5]: > 100 µM | TGI [6]: 22.1 µM | TGI [42]: 63.2 µM | TGI [43]: 41.4 µM | TGI [44]: > 100 µM | TGI [7]: 84.4 µM | TGI [8]: > 100 µM | TGI [45]: 83.3 µM | TGI [9]: > 100 µM | TGI [46]: 49.2 µM | TGI [47]: > 100 µM | TGI [10]: > 100 µM | TGI [48]: > 100 µM | TGI [11]: > 100 µM | TGI [49]: > 100 µM | TGI [12]: > 100 µM | TGI [14]: > 100 µM | TGI [15]: > 100 µM | TGI [16]: > 100 µM | TGI [19]: > 100 µM | TGI [50]: 91.6 µM | TGI [51]: > 100 µM | TGI [21]: 37 µM | TGI [22]: > 100 µM | TGI [23]: > 100 µM | TGI [24]: 44.1 µM | TGI [52]: 54 µM | TGI [53]: 30.1 µM | TGI [54]: > 100 µM | TGI [25]: > 100 µM | TGI [26]: 40.4 µM | TGI [27]: > 100 µM | TGI [29]: > 100 µM | TGI [30]: > 100 µM | TGI [31]: 56.5 µM | TGI [32]: > 100 µM | TGI [34]: > 100 µM | TGI [35]: > 100 µM | TGI [36]: > 100 µM | TGI [55]: > 100 µM | TGI [56]: 72.4 µM | TGI [38]: > 100 µM | TGI [39]: > 100 µM | TGI [57]: 87.9 µM | TGI [58]: > 100 µM | TGI [59]: > 100 µM | TGI [60]: > 100 µM | TGI [40]: > 100 µM

CCOC(=O)NC(=O)c1cn(CCCOC(=O)NCCCCCCNC(=O)OCCCn2cc(C(=O)NC(=O)OCC)c(=O)[nH]c2=O)c(=O)[nH]c1=O
TGI [1]: 39.2 µM | TGI [2]: 32.9 µM | TGI [61]: 45.2 µM | TGI [3]: > 100 µM | TGI [41]: 33.6 µM | TGI [4]: > 100 µM | TGI [5]: > 100 µM | TGI [42]: > 100 µM | TGI [43]: 90.3 µM | TGI [44]: > 100 µM | TGI [7]: > 100 µM | TGI [62]: > 100 µM | TGI [45]: > 100 µM | TGI [47]: > 100 µM | TGI [10]: 77.6 µM | TGI [48]: 88.9 µM | TGI [11]: 35 µM | TGI [49]: > 100 µM | TGI [12]: 41 µM | TGI [14]: 68.5 µM | TGI [15]: 45.6 µM | TGI [16]: > 100 µM | TGI [51]: > 100 µM | TGI [21]: 41.7 µM | TGI [22]: > 100 µM | TGI [23]: > 100 µM | TGI [24]: 44.5 µM | TGI [52]: > 100 µM | TGI [54]: 44.1 µM | TGI [25]: > 100 µM | TGI [26]: > 100 µM | TGI [27]: 38.8 µM | TGI [29]: > 100 µM | TGI [30]: 42.4 µM | TGI [31]: 34.1 µM | TGI [32]: 29.6 µM | TGI [33]: > 100 µM | TGI [34]: 35.4 µM | TGI [36]: 65.1 µM | TGI [55]: 39.8 µM | TGI [56]: 49.9 µM | TGI [39]: 37 µM | TGI [57]: > 100 µM | TGI [58]: 49.4 µM | TGI [59]: 93.6 µM | TGI [60]: > 100 µM

Cc1ccc2ccc3ccc(C)nc3c2n1
TGI [1]: > 100 µM | TGI [2]: > 100 µM | TGI [61]: > 100 µM | TGI [3]: > 100 µM | TGI [63]: > 100 µM | TGI [41]: > 100 µM | TGI [4]: > 100 µM | TGI [5]: > 100 µM | TGI [6]: > 100 µM | TGI [42]: > 100 µM | TGI [43]: > 100 µM | TGI [44]: > 100 µM | TGI [7]: > 100 µM | TGI [62]: > 100 µM | TGI [8]: > 100 µM | TGI [45]: > 100 µM | TGI [46]: > 100 µM | TGI [47]: > 100 µM | TGI [10]: > 100 µM | TGI [48]: > 100 µM | TGI [11]: > 100 µM | TGI [49]: > 100 µM | TGI [12]: > 100 µM | TGI [13]: > 100 µM | TGI [14]: > 100 µM | TGI [15]: > 100 µM | TGI [16]: > 100 µM | TGI [17]: > 100 µM | TGI [64]: > 100 µM | TGI [18]: > 100 µM | TGI [19]: > 100 µM | TGI [50]: > 100 µM | TGI [51]: > 100 µM | TGI [20]: > 100 µM | TGI [65]: 0.93 µM | TGI [21]: > 100 µM | TGI [22]: > 100 µM | TGI [23]: > 100 µM | TGI [24]: > 100 µM | TGI [52]: > 100 µM | TGI [53]: > 100 µM | TGI [54]: > 100 µM | TGI [25]: > 44.7 µM | TGI [26]: > 100 µM | TGI [27]: > 100 µM | TGI [28]: > 100 µM | TGI [29]: > 100 µM | TGI [30]: > 100 µM | TGI [66]: > 100 µM | TGI [67]: > 100 µM | TGI [31]: 1.34 µM | TGI [32]: > 100 µM | TGI [33]: > 100 µM | TGI [34]: > 100 µM | TGI [35]: > 100 µM | TGI [36]: > 100 µM | TGI [55]: > 100 µM | TGI [56]: > 100 µM | TGI [37]: > 100 µM | TGI [38]: > 100 µM | TGI [39]: > 100 µM | TGI [57]: > 100 µM | TGI [58]: > 100 µM | TGI [68]: > 100 µM | TGI [59]: > 100 µM | TGI [60]: > 100 µM | TGI [40]: > 100 µM
